Data taken from the supplement of paper PMC8967900.

Columns and labels:
Experiment in all cases: selective drug sensitivity score (sDSS, relative to normal bone marrow) (sDSS (score)); higher = more potent and effective on the cell line relative to normal bone marrow cells
Conditions in all cases: 72 h
[1] = test system: RCH-ACV
[2] = test system: COG-LL-355h
[3] = test system: ALL-SIL
[4] = test system: COG-LL-319h
[5] = test system: HPB-ALL
[6] = test system: MHH-CALL-4
[7] = test system: PF-382
[8] = test system: NALM-6
[9] = test system: MHH-CALL-2
[10] = test system: COG-LL-317
[11] = test system: REH
[12] = test system: MOLT-16
[13] = test system: MN-60
[14] = test system: MOLT-14
[15] = test system: CCRF-CEM
[16] = test system: KARPAS-45
[17] = test system: P30-OHKUBO
[18] = test system: COG-LL-332h
[19] = test system: MOLT-4
[20] = test system: TANOUE
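Further: ALL cell lines in 384-well plates, five doses spanning 10,000-fold, each plate scaled between vehicle and 100 µmol/L benzalkonium chloride controls, sDSS an adapted area-under-curve metric.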

SMILES | selective drug sensitivity score [1] | selective drug sensitivity score [2] | selective drug sensitivity score [3] | selective drug sensitivity score [4] | selective drug sensitivity score [5] | selective drug sensitivity score [6] | selective drug sensitivity score [7] | selective drug sensitivity score [8] | selective drug sensitivity score [9] | selective drug sensitivity score [10] | selective drug sensitivity score [11] | selective drug sensitivity score [12] | selective drug sensitivity score [13] | selective drug sensitivity score [14] | selective drug sensitivity score [15] | selective drug sensitivity score [16] | selective drug sensitivity score [17] | selective drug sensitivity score [18] | selective drug sensitivity score [19] | selective drug sensitivity score [20]
CCS(=O)(=O)Nc1ccc(Oc2ccc(F)cc2F)c(-c2cn(C)c(=O)c3[nH]ccc23)c1 [Mivebresib] (top concentration 10000 nM) | 18.1 | 6 | 1.7 | 7.7 | 1.9 | 12.5 | 8 | 6 | 14.8 | 11.5 | -1.8 | 13.1 | 8.2 | 2.7 | 1.5 | 14 | 15.3 | -3.9 | -3.5 | -12
CCS(=O)(=O)N1CC(CC#N)(n2cc(-c3ncnc4[nH]ccc34)cn2)C1 [Baricitinib] (top concentration 2500 nM) | -1.94 | -1.94 | 4.66 | -1.94 | -1.94 | -1.24 | -1.94 | -1.94 | -1.94 | -1.94 | -1.94 | -1.94 | -1.94 | -1.94 | -1.94 | -1.94 | -1.94 | 0.16 | -1.94 | -1.94
COc1cc(C(=O)O)ccc1NC(=O)[C@@H]1N[C@@H](CC(C)(C)C)[C@](C#N)(c2ccc(Cl)cc2F)[C@H]1c1cccc(Cl)c1F [Idasanutlin] (top concentration 10000 nM) | 21 | 13.7 | -12.5 | 17 | -8.54 | 12.3 | -12.2 | 5.66 | 18.7 | 28.4 | 8.16 | 21.3 | 0.46 | 15.6 | -9.94 | -8.34 | 20.8 | 14.5 | 20.7 | -12.5
C[C@@H]1CN(C(=O)c2ccc(NC(=O)c3cc(O[C@H](C)c4c(Cl)ccc(F)c4Cl)c(N)nn3)cc2)C[C@H](C)N1 [Ensartinib] (top concentration 1000 nM) | -1.44 | 1.86 | 1.06 | -2.64 | -2.84 | -2.84 | -2.64 | -0.44 | -2.84 | -2.34 | -2.24 | -0.74 | -2.84 | -1.74 | -0.34 | 2.36 | 2.06 | 2.76 | -0.54 | -2.84
COc1cc(CCc2cc(NC(=O)c3ccc(N4CC(C)NC(C)C4)cc3)n[nH]2)cc(OC)c1 (stereo not given) [AZD4547] (top concentration 1000 nM) | 3.46 | -0.14 | 0.56 | -0.04 | -0.14 | -0.14 | -0.14 | -0.14 | -0.14 | -0.14 | -0.14 | -0.14 | -0.14 | -0.14 | -0.14 | -0.14 | -0.14 | -0.04 | -0.14 | -0.14
CN1CC[C@@H](NC(=O)Nc2ccc(C#N)cc2)C[C@@H]1c1nc2ccccc2[nH]1 [Glasdegib] (top concentration 1000 nM) | 0 | 0 | 0.8 | 4.1 | 0.1 | 0 | 0 | 0 | 0 | 1.5 | 1.6 | 0 | 4.7 | 0 | 0 | 0 | 0 | 1 | 0 | 2.9
O=C1CCC(N2C(=O)c3ccccc3C2=O)C(=O)N1 (stereo not given) [Thalidomide] (top concentration 10000 nM) | -0.14 | 0.16 | -0.14 | -0.14 | -0.14 | -0.14 | -0.14 | -0.14 | -0.14 | -0.14 | -0.04 | -0.14 | -0.14 | -0.14 | -0.14 | -0.14 | -0.14 | -0.14 | -0.14 | -0.14
CCCCC(=O)OCC(=O)[C@]1(O)Cc2c(O)c3c(c(O)c2[C@@H](O[C@H]2C[C@H](NC(=O)C(F)(F)F)[C@H](O)[C@H](C)O2)C1)C(=O)c1c(OC)cccc1C3=O [Valrubicin] (top concentration 5000 nM) | 11.8 | 2.98 | -0.72 | 12.9 | -4.12 | 7.28 | 1.48 | 3.18 | 7.48 | 17 | 12.1 | 18.1 | -3.92 | 12.6 | 10.9 | -2.62 | 5.98 | 11.2 | 10.8 | -12.7
CCN(c1cc(-c2ccc(CN3CCOCC3)cc2)cc(C(=O)NCc2c(C)cc(C)[nH]c2=O)c1C)C1CCOCC1 [Tazemetostat] (top concentration 10000 nM) | -0.08 | -0.08 | 0.12 | -0.08 | -0.08 | -0.08 | -0.08 | -0.08 | 6.72 | -0.08 | -0.08 | -0.08 | -0.08 | 0.32 | 1.02 | 1.32 | 0.42 | -0.08 | -0.08 | -0.08
CN1CCN(C2CCN(C(=O)Nc3cc(Oc4ccc(NC(=O)C5(C(=O)Nc6ccc(F)cc6)CC5)c(F)c4)ccn3)CC2)CC1 [Golvatinib] (top concentration 2500 nM) | 4.26 | -0.14 | 4.56 | -0.14 | 6.76 | -0.14 | -0.14 | 1.06 | 0.26 | -0.14 | 2.46 | -0.14 | -0.14 | -0.14 | -0.14 | 0.76 | 0.56 | 0.86 | -0.14 | -0.14
CC(O)c1cc(C(=O)N[C@@H](C)Cn2ccc(-c3ccc(C#N)c(Cl)c3)n2)n[nH]1 (stereo not given in full) [ODM-201] (top concentration 2500 nM) | 1.12 | 2.52 | 4.72 | 10.6 | 0.12 | -0.28 | 0.52 | 1.22 | 0.02 | 1.22 | 0.02 | 1.82 | -0.28 | 0.82 | 1.52 | 2.32 | 0.22 | 1.52 | -0.18 | 2.32
CC[C@@H]1CN(C(=O)NCC(F)(F)F)C[C@@H]1c1cnc2cnc3[nH]ccc3n12 [Upadacitinib] (top concentration 10000 nM) | -7.16 | -7.16 | -7.16 | -7.16 | -7.16 | -6.46 | -6.06 | -5.96 | -7.16 | -7.16 | -7.16 | -7.16 | -7.16 | -7.16 | -4.66 | -7.16 | -3.16 | -6.66 | -7.16 | -6.86
CN1CCN(C(=O)c2ccc3cc(CCNc4ncnc5ccc(C#N)cc45)ccc3c2)CC1 [Senexin_B] (top concentration 1000 nM) | 2 | -0.6 | -0.6 | -0.6 | -0.6 | -0.6 | -0.1 | 0.9 | -0.1 | 0.5 | -0.6 | 1.8 | 1.4 | 2.1 | 1.7 | 1.4 | 0.4 | 0.6 | -0.6 | 1.1
CCCCOc1nc(N)c2c(n1)N(Cc1cccc(CN3CCCC3)c1)CC(=O)N2 [Vesatolimod] (top concentration 10000 nM) | -3.52 | 0.28 | -3.52 | 0.38 | -3.52 | -3.52 | -3.52 | -3.52 | -3.52 | -2.92 | -3.52 | -3.52 | -2.32 | -3.52 | -3.52 | -3.52 | -3.52 | -3.52 | -3.52 | -3.32
COc1cc2c(Nc3ccc(Cl)c(Cl)c3F)ncnc2cc1OC[C@@H]1C[C@@H]2CN(C)C[C@@H]2C1 [Tesevatinib] (top concentration 1000 nM) | 0.64 | 2.04 | -0.26 | -1.36 | 0.64 | 2.34 | -1.06 | -0.16 | 1.44 | 0.04 | -1.36 | 1.74 | 0.24 | -0.56 | 1.34 | 0.74 | 0.94 | -0.86 | -0.86 | -1.36
CCC1(c2ccc(N)cc2)CCC(=O)NC1=O (stereo not given) [Aminoglutethimide] (top concentration 10000 nM) | 0 | 0.6 | 0 | 0 | 0.4 | 0.5 | 0 | 0 | 2.4 | 0 | 0.6 | 0 | 0 | 0 | 0 | 0 | 0 | 0 | 0 | 0
CCC1=C[C@@H]2CN(C1)Cc1c([nH]c3ccccc13)[C@@](C(=O)OC)(c1cc3c(cc1OC)N(C)[C@H]1[C@@](O)(C(=O)OC)[C@H](OC(C)=O)[C@]4(CC)C=CCN5CC[C@]31[C@@H]54)C2 [Vinorelbine] (top concentration 10000 nM) | 25.1 | 5.98 | 23.6 | 12.2 | 14.6 | 8.98 | 11 | 14.9 | 19.3 | 25.6 | 26.6 | 24.7 | 1.68 | 22.9 | 17.8 | 17.8 | 21.5 | 20.5 | 20.6 | -8.32
O=C(O)CCCCC(CCSCc1ccccc1)SCc1ccccc1 (stereo not given) [Devimistat (CPI-613)] (top concentration 10000 nM) | 0 | 2.4 | 0 | 1.3 | 0 | 0 | 0 | 0 | 0.8 | 0 | 0 | 0 | 0.1 | 0 | 0 | 0 | 0 | 0 | 0 | 1.8
